# In patent US11628162B2, “Methods of treating cancer with an FGFR inhibitor” (Incyte Corporation, priority 2019, dated 2023):
# Like-named read-outs stand apart in the source and are kept apart here.
# Key:
# [1] = human, in vivo, po
# human liver microsomes [2] = details: 0.5 h, 1 μM, pH 7.4
# Experimental: (§1) Aliquots were taken at 0, 10, 20, and 30 minutes and denatured with methanol. After centrifugation to remove the denatured proteins, the resulting supernatants were analyzed by LC/MS.
# human liver microsomes [3] = experiment: Metabolism of pemigatinib in human liver microsomes with selective chemical CYP inhibitors; details: pemigatinib 1 μM, human liver microsomes 1 mg/mL, NADPH; no inhibitor or furafylline 10, ticlopidine 2, quercetin 10, sulfaphenazole 10, tranylcypromine 20, quinidine 1, ketoconazole 2 μM
# Experimental: as §1
compound,measurement,setting,value
"CCC(C)n1ncn(-c2ccc(N3CCN(c4ccc(OCC5COC(Cn6cncn6)(c6ccc(Cl)cc6Cl)O5)cc4)CC3)cc2)c1=O (stereo not shown) [Itraconazole, reference compound]","Pemigatinib AUC Ratio, Observed",[1],1.88
same,"Pemigatinib Cmax Ratio, Observed",[1],1.17
Nc1ccc(S(=O)(=O)Nc2ccnn2-c2ccccc2)cc1 [Sulfaphenazole],Mean Percent of Pemigatinib Remaining After 30-Minute Incubation (N = 3),human liver microsomes [2],70 ± 3%
N[C@@H]1C[C@H]1c1ccccc1 (racemic) [Tranylcypromine],Mean Percent of Pemigatinib Remaining After 30-Minute Incubation (N = 3),human liver microsomes [3],73 ± 2%
